Reference: patent US20250281424A1 (New York Blood Center, Inc, priority 2020, published 2025)

Molecular target: T1, human PF4 (Homo sapiens, UniProt P02776)
T1 construct: PF4 is a 70 amino acid, lysine-rich 7.8 kDa platelet-specific protein; made in house; host or cells: Escherichia coli BL21DE3 pLysS (pT7-7) and/or Drosophila S2 cells
T1 sequence (P02776 32-101): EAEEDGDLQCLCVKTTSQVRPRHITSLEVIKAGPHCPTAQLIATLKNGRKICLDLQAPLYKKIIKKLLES
Assay: Inhibition of PF4 tetramer formation (BS3 cross-linking, SDS-PAGE)
Assay type: biochemical
Conditions: for inhibition at 10 µM: 10 μM inhibitor (column A); for inhibition at 10 µM / inhibition at 3 µM / inhibition at 5 µM / inhibition at 1 µM: read-out: % inhibition of PF4 tetramer formation at single concentration of inhibitor; for inhibition at 3 µM: 3 μM inhibitor (column A); for inhibition at 5 µM: 5 μM inhibitor; for IC50: read-out: IC50 of PF4 tetramer formation inhibition; for inhibition at 1 µM: 1 μM inhibitor
Procedure: Compounds of Examples 1-38, 65-301, 303, 305, 307, 309, 311, 313, 314, 316, and 318-404 were tested using SDS PAGE analysis of BS3 crosslinked PF4 for their ability to prevent PF4 tetramer formation. […] See, Suvarna et al., Throm. Res, 122:211-220 (2008), which is hereby incorporated by reference, at least for a detailed description of this technique.
cDNA encoding human PF4 was cloned into the plasmid μMT/BiPN5-His A (Invitrogen Corp., Carlsbad CA) for expression in the Drosophila Expression System (Invitrogen, Carlsbad, CA). Cloning was performed using Bg1 II and Age I cloning sites. A hexanucleotide encoding Bg1 II site was then eliminated by site-directed mutagenesis so that the expressed protein contained full-length wild type (wt) PF4 or PF4^K50E with an identical sequence as their counterparts expressed in E. coli. See, method described in Sachais et al (Sachais, B. S. et al. (2012). Blood 119(25): 5955-5961). PF4 expression was induced by adding copper sulfate (0.5 mM). The induced S2 cells were incubated in serumfree Insect-Xpress™ media (Lonza, Walkersville, MD) for 3-5 days; supernatants were collected, sodium azide (0.02% final concentration) and EDTA (2.5 mM final concentration) were added, and the media were filtered through an Express® PLUS 0.22 μm filter (Millipore Corp., Billerica, MA).
Wild-type (WT) human PF4 in the pT7-7 vector (Novagen, Madison, WI) was expressed in the Escherichia coli strain BL21DE30 pLysS (Stratagene, La Jolla, CA), and purified and characterized as described by Rauova et al. (Rauova, L. et al. (2006). Blood 107(6): 2346-2353) and Park et al., (Blood, 75:1290-1295 (1990)), which are hereby incorporated by reference. Briefly, recombinant protein was isolated from the supernatant of the bacterial lysate by affinity chromatography using a HiTrap high-performance (HP) affinity column. WT PF4 was purified from the media on a heparin HiTrap® column on an ÄTKAPrime™ system (GE Healthcare) at 4° C. in Tris (10 mM), EDTA (1 mM), and pH 8 buffer. Media was loaded in buffer containing NaCl (0.5 M) and PF4 was eluted at 1.8 M NaCl using a linear gradient. Fractions containing purified PF4 as detected by silver staining of 12% NuPAGE Bis-Tris gels (Invitrogen) were pooled, concentrated and buffer exchanged into 50 mM HEPES, 0.5 M NaCl, pH—7.2 using an Amicon® Ultra centrifugal filter (3K NMWL, Millipore Corp). Protein was quantified using a BCA assay.
Compounds of Examples 1-38, 65-196, and 209-228 were then tested for their ability to inhibit PF4 tetramer formation using a cross-linking assay as described in Rauova cited above. Specifically, hPF4 (10 μg/ml) in phosphate-buffered saline (PBS) was incubated at 37° C. for 15 min in the absence of the antagonistic compounds (control sample) and presence of compounds. Cross-linking and SDS-PAGE analysis were then performed as described in “Analysis of PF4 multimerization” of Rauova. The relative amounts of PF4 in each of the monomer, dimer, trimer and tetramer form were calculated by analyzing the samples on a 12% SDS-polyacrylamide gel under reducing conditions. Bands were quantified using the Kodak ID Image Analysis system (Kodak, Rochester, NY). The SigmaMarker™ reagent served as the molecular weight standard. Data was compiled and bar graphed as % PF4 for the tetramer, trimer, dimer, and monomer as a function of concentration for the test and control samples.
This experiment was performed in a manner similar to experiment 1, but PF4 (10 μg/ml) in PBS was independently incubated with compounds of Examples 1-38, 65-196, and 209-228 for 60 min at room temperature, followed by the addition of cross-linking reagent bis(sulfosuccinimidyl)suberate (0.2 mM) for 30 min at room temperature. The reaction was stopped by adding NuPAGE® lithium dodecyl sulfate (LDS) sample buffer, and denatured by heating to 70° C. for 10 min according to the manufacturer's instructions. […]

Structure (SMILES)	inhibition at 10 µM	inhibition at 3 µM	inhibition at 5 µM	IC50	inhibition at 1 µM
O=C(O)CCNC(=O)C1C(=O)c2ccc(S(=O)(=O)c3ccc4c(c3)C(=O)C(C(=O)NCCC(=O)O)C4=O)cc2C1=O (stereo not shown) [Example 303, 3-{[5-({2-[(2-carboxyethyl)carbamoyl]-1,3-dioxo-2,3-dihydro-1H-inden-5-yl}sulfonyl)-1,3-dioxo-2,3-dihydro-1H-inden-2-yl]formamido}propanoic acid]	60%	–	–	–	–
CN1CCC(C(=O)C2C(=O)c3ccc(C(=O)c4ccc5c(c4)C(=O)C(C(=O)C4CCN(C)CC4)C5=O)cc3C2=O)CC1 (stereo not shown) [Example 266, 2-(1-methylpiperidine-4-carbonyl)-5-[2-(1-methylpiperidine-4-carbonyl)-1,3-dioxo-2,3-dihydro-1H-indene-5-carbonyl]-2,3-dihydro-1H-indene-1,3-dione]	–	25%	–	–	–
O=C(Cn1cccn1)C1C(=O)c2ccc(S(=O)(=O)c3ccc4c(c3)C(=O)C(C(=O)Cn3cccn3)C4=O)cc2C1=O (stereo not shown) [Example 139, 5-({1,3-dioxo-2-[2-(1H-pyrazol-1-yl)acetyl]-2,3-dihydro-1H-inden-5-yl}sulfonyl)-2-[2-(1H-pyrazol-1-yl)acetyl]-2,3-dihydro-1H-indene-1,3-dione]	97%	–	87%	7 µM	–
CC(C)[C@@H](N)C(=O)C1C(=O)c2ccc(S(=O)(=O)c3ccc4c(c3)C(=O)C(C(=O)[C@H](N)C(C)C)C4=O)cc2C1=O (stereo partly drawn) [Example 353, 2-[(2R)-2-amino-3-methylbutanoyl]-5-({2-[(2R)-2-amino-3-methylbutanoyl]-1,3-dioxo-2,3-dihydro-1H-inden-5-yl}sulfonyl)-2,3-dihydro-1H-indene-1,3-dione]	–	37%	–	–	22%
O=C(c1ccc2c(c1)C(=O)C(C(=O)NC1CCS(=O)(=O)C1)C2=O)c1ccc2c(c1)C(=O)C(C(=O)NC1CCS(=O)(=O)C1)C2=O (stereo not shown) [Example 361, N-(1,1-dioxo-1λ^6-thiolan-3-yl)-5-{2-[(1,1-dioxo-1λ^6-thiolan-3-yl)carbamoyl]-1,3-dioxo-2,3-dihydro-1H-indene-5-carbonyl}-1,3-dioxo-2,3-dihydro-1H-indene-2-carboxamide]	–	34%	–	–	9%
Cc1ccc(NC(=O)C2C(=O)c3ccc(S(=O)(=O)c4ccc5c(c4)C(=O)C(C(=O)Nc4ccc(C)cc4)C5=O)cc3C2=O)cc1 (stereo not shown) [Example 92, N-(4-methylphenyl)-5-({2-[(4-methylphenyl)carbamoyl]-1,3-dioxo-2,3-dihydro-1H-inden-5-yl}sulfonyl)-1,3-dioxo-2,3-dihydro-1H-indene-2-carboxamide]	65%	–	60%	–	–
C[C@H]1C[C@@H](C(=O)C2C(=O)c3ccc(C(=O)c4ccc5c(c4)C(=O)C(C(=O)[C@@H]4C[C@H](C)CN4C(=O)OC(C)(C)C)C5=O)cc3C2=O)N(C(=O)OC(C)(C)C)C1 (stereo partly drawn) [Example 132, tert-butyl (2S,4S)-2-(5-{2-[(2S,4S)-1-[(tert-butoxy)carbonyl]-4-methylpyrrolidine-2-carbonyl]-1,3-dioxo-2,3-dihydro-1H-indene-5-carbonyl}-1,3-dioxo-2,3-dihydro-1H-indene-2-carbonyl)-4-methylpyrrolidine-1-carboxylate]	88%	–	79%	3.5 µM	–
COC(=O)c1ccccc1NC(=O)C1C(=O)c2ccc(C(=O)c3ccc4c(c3)C(=O)C(C(=O)Nc3ccccc3C(=O)OC)C4=O)cc2C1=O (stereo not shown) [Example 99, methyl 2-[5-(2-{[2-(methoxycarbonyl)phenyl]carbamoyl}-1,3-dioxo-2,3-dihydro-1H-indene-5-carbonyl)-1,3-dioxo-2,3-dihydro-1H-indene-2-amido]benzoate]	100%	–	44%	13 µM	–
CCOC(=O)CC(=O)C1C(=O)c2ccc(S(=O)(=O)c3ccc4c(c3)C(=O)C(C(=O)CC(=O)OCC)C4=O)cc2C1=O (stereo not shown) [Example 403, ethyl 3-(5-{[2-(3-ethoxy-3-oxopropanoyl)-1,3-dioxo-2,3-dihydro-1H-inden-5-yl]sulfonyl}-1,3-dioxo-2,3-dihydro-1H-inden-2-yl)-3-oxopropanoate]	–	23%	–	–	22%
O=C(COc1ccccc1)C1C(=O)c2ccc(S(=O)(=O)c3ccc4c(c3)C(=O)C(C(=O)COc3ccccc3)C4=O)cc2C1=O (stereo not shown) [Example 144, 5-{[1,3-dioxo-2-(2-phenoxyacetyl)-2,3-dihydro-1H-inden-5-yl]sulfonyl}-2-(2-phenoxyacetyl)-2,3-dihydro-1H-indene-1,3-dione]	–	–	–	4.7 µM	–
Cc1ccccc1C(=O)CCC(=O)C1C(=O)c2ccc(S(=O)(=O)c3ccc4c(c3)C(=O)C(C(=O)CCC(=O)c3ccccc3C)C4=O)cc2C1=O (stereo not shown) [Example 254, 2-[4-(2-methylphenyl)-4-oxobutanoyl]-5-({2-[4-(2-methylphenyl)-4-oxobutanoyl]-1,3-dioxo-2,3-dihydro-1H-inden-5-yl}sulfonyl)-2,3-dihydro-1H-indene-1,3-dione]	–	51%	–	–	28%
COCCC(=O)C1C(=O)c2ccc(C(=O)c3ccc4c(c3)C(=O)C(C(=O)CCOC)C4=O)cc2C1=O (stereo not shown) [Example 176, 2-(3-methoxypropanoyl)-5-[2-(3-methoxypropanoyl)-1,3-dioxo-2,3-dihydro-1H-indene-5-carbonyl]-2,3-dihydro-1H-indene-1,3-dione]	77%	–	21%	–	–
O=C1c2ccc(Oc3ccc4c(c3)C(=O)C(C(=O)[C@H]3CCCN3)C4=O)cc2C(=O)C1C(=O)[C@@H]1CCNC1 (stereo partly drawn) [Example 356, 5-({1,3-dioxo-2-[(3R)-pyrrolidine-3-carbonyl]-2,3-dihydro-1H-inden-5-yl}oxy)-2-[(2R)-pyrrolidine-2-carbonyl]-2,3-dihydro-1H-indene-1,3-dione]	–	55%	–	–	18%
CC(C)(C)OC(=O)N[C@@H](C(=O)C1C(=O)c2ccc(C(=O)c3ccc4c(c3)C(=O)C(C(=O)[C@H](NC(=O)OC(C)(C)C)c3ccccc3)C4=O)cc2C1=O)c1ccccc1 (stereo partly drawn) [Example 170, tert-butyl N-[(1R)-2-(5-{2-[(2R)-2-{[(tert-butoxy)carbonyl]amino}-2-phenylacetyl]-1,3-dioxo-2,3-dihydro-1H-indene-5-carbonyl}-1,3-dioxo-2,3-dihydro-1H-inden-2-yl)-2-oxo-1-phenylethyl]carbamate]	85%	–	76%	3.4 µM	–
CCCCc1ccc(NC(=O)C2C(=O)c3ccc(C(=O)c4ccc5c(c4)C(=O)C(C(=O)Nc4ccc(CCCC)cc4)C5=O)cc3C2=O)cc1 (stereo not shown) [Example 101, N-(4-butylphenyl)-5-{2-[(4-butylphenyl)carbamoyl]-1,3-dioxo-2,3-dihydro-1H-indene-5-carbonyl}-1,3-dioxo-2,3-dihydro-1H-indene-2-carboxamide]	71%	–	80%	–	–
